Cytotoxicity data for 3 compounds are collected here from EP0394553A2, “Use of fluorine containing pyridone carboxylic acid derivatives for preparing a medicament for the treatment of HIV infections” (DAIICHI PHARMACEUTICAL CO., LTD., priority 1989, dated 1990).

This data set deals with CEM cells. As to the kind of experiment: Cytotoxicity in uninfected CEM cells (trypan blue staining). To be noted: at concentrations not exceeding 10 mcg/ml. The protocol:
Human T cell-derived, T4 antigen-positive CEM cells (provided by the Institut Pasteur, France) were used as host cells of HIV. Cell culture was carried out in a carbon dioxide-containing atmosphere in an incubator maintained at 37°C according to a conventional method [cf. […] The culture supernatant (5×10⁶ TCID₅₀/ml) obtained by subjecting CEM cells to HIV (LAV 1) infection and stored at -70°C was used as the HIV source.
The cell culture medium (10 ml) placed in a plastic culture flask (25 cm²) was inoculated with CEM cells to a cell density of 2.5×10⁵ cells/ml and incubation was performed for 3 days. Then, the culture was transferred to a 15-ml plastic centrifuge tube and centrifuged at 1,000 revolutions per minute for 5 minutes for medium removal. A fresh portion of the medium was added to the cells, the cell density being adjusted to 5.0×10⁵ cells/ml. The following mixture (1.0 ml) containing the cell suspension prepared in the above manner was incubated in a 24-well plastic culture plate for 4 days:
The cells in each well were then suspended uniformly in the medium by pipetting and a 0.5-ml portion of the suspension was separated.
A fresh 2-ml portion of the test substance-free medium was added to the remaining cell suspension (0.5 ml) and, after a further 3-day incubation, a cell suspension was produced in the same manner and a 0.5-ml portion thereof was removed.
The cell suspensions collected in the above manner were subjected to viable cell count and viable cell percentage determinations by trypan blue staining.
Turning to `CC1COc2c(N3CCN(C)CC3)c(F)cc3c(=O)c(C(=O)O)cn1c23` (racemic) [OFLX, (±)-9-fluoro-3-methyl-10-(4-methyl-1-piperazinyl)-7-oxo-2,3-dihydro-7H-pyrido[1,2,3-de][1,4]benzoxazine-6-carboxylic acid], the cytotoxicity entry was “no cytotoxicity”.
For `CCn1cc(C(=O)O)c(=O)c2cc(F)c(N3CCNCC3)cc21` [NFLX, 1-ethyl-6-fluoro-1,4-dihydro-4-oxo-7-(1-piperazinyl)-3-quinolinecarboxylic acid], the cytotoxicity result is “no cytotoxicity”.
On to `C[C@H]1COc2c(N3CCN(C)CC3)c(F)cc3c(=O)c(C(=O)O)cn1c23` [DR-3355, (-)-(S)-9-fluoro-2,3-dihydro-3-methyl-10-(4-methyl-1-piperazinyl)-7-oxo-7H-pyrido[1,2,3-de][1,4]benzoxazine-6-carboxylic acid hemihydrate], for which the cytotoxicity entry was “no cytotoxicity”.
